Experimental findings from patent publication US5932742A, “Arylsulfonylimidazolone derivatives as an antitumor agent” (priority 1996, dated 1999) are described below.

Common to all, as to type: cell-based
Assay [1] concerns A549 (ATCC CCL 185): human lung carcinoma. Description: In vitro antitumor activity, MTT assay, A549. Conditions: Homo sapiens, A549, 48 h, Table 3. The procedure: (§1) In vitro antitumor activity against human tumor cell lines
(§2) In vitro antitumor activity of the compounds according to the present invention was determined by MTT assay method against the following human tumor cell lines:
A549 (ATCC CCL 185): human lung carcinoma
(§3) In this test, the known antineoplastic compounds, Doxorubicin and Sulofenur, were used as the comparative agents.
(§4) Each of the tumor cells was cultured in RPMI 1640 media containing 10% fetal bovine serum, 100 IU/ml penicillin and 100 μg/ml streptomycin, and then periodically subcultured once or twice per week in trypsin-EDTA solution containing 0.05% trypsin and 0.53mM EDTA.4Na. The human tumor cell line thus obtained (10,000cells/100 μl) was plated on 96-well microplate and then cultured for 24 hrs at 37° C. in a 5% CO2 incubator. Test compound was dissolved in DMSO, sterilized with 0.22 μm PVDF filter, and then serially 5-fold diluted from 40 μg/ml to 0.00256μg/ml. 100 μl of the sample solution thus prepared and RPMI 1640 medium only (control group) were added to 96-well microplate containing the human tumor cell, respectively. The final concentration of the test compound was in the range from 20 μg/ml to 0.00128 μg/ml and the concentration of DMSO was below 0.5%. The cells were cultured for 48 hrs at 37° C. in a 5% CO2 incubator. MTT(3-(4,5-Dimethylthiazole-2-yl)-e,5-diphenyltetrazoliumbromide) was dissolved in physiological saline in a concentration of 2 mg/ml and the resulting solution was filtered through 0.22 μm PTFE filter. 25 μl of MTT solution thus prepared was added to each well of 96-well microplate and incubated for additional 4 hrs at 37° C. in a 5% CO2 incubator. Then, the content of microplate was centrifuged at 1000 rpm for 10 min, and supernatant was removed by flicking. The formazan formed from MTT by mitochondrial succinate dehydrogenase was dissolved in 100 μl of DMSO. The absorbance of each well was measured at 540nm by micro ELISA reader and the cytotoxicity was calculated by dividing the absorbance of test group by the absorbance of control group. After the calculated cytotoxicity (%) was plotted, the concentration of 50% tumor growth inhibition concentration (IC50) was estimated by Linear-Regression method.
On the technique in general: Tetrazolium assays rely on reduction of a dye to a coloured formazan, in cell work by metabolically active cells.

The test system of assay [2] is Colo205 (ATCC CCL 222): human colon adenocarcinoma. Put plainly: In vitro antitumor activity, MTT assay, Colo205. The note with it: Homo sapiens, COLO 205, Table 3, 48 hrs, read-out: IC50 (Col205). How it is done: as §1, §2
Colo205 (ATCC CCL 222): human colon adenocarcinoma
as §3, §4

Assay [3] concerns SK-OV-3 (ATCC HTB 77): human ovarian adenocarcinoma. Put plainly: In vitro antitumor activity, MTT assay, SK-OV-3. The note with it: Homo sapiens, SK-OV-3, Table 3, 48 hrs. How it is done: as §1, §2
SK-OV-3 (ATCC HTB 77): human ovarian adenocarcinoma
as §3, §4

The subject of assay [4] is K562 (ATCC CCL 243): human chronic myelogenous leukemia. Put plainly: In vitro antitumor activity, MTT assay, K562. Conditions: Homo sapiens, K562, 48 h, Table 3, read-out: IC50 (K562). How it is done:
as §1, §2
K562 (ATCC CCL 243): human chronic myelogenous leukemia
as §3, §4

≈ marks a conversion by molar mass, not a printed value. Where only a bound is given, the exact number is not on record here.

By IC50 is commonly meant the concentration needed to halve the response being measured. With `CC(C)NC(=O)N1CCc2cc(S(=O)(=O)N3CC(c4ccccc4)NC3=O)ccc21` (centres unmarked) [Example 31, 4-phenyl-1-(N-isopropylcarbamoylindoline-5-sulfonyl)-4,5-dihydro-2-imidazolone], the concentration for half-maximal inhibition (IC50) was found to be 0.073 mg/L (≈ 0.17 µM) in assay [1], 0.258 mg/L (≈ 0.602 µM) in assay [2], 0.28 mg/L (≈ 0.653 µM) in assay [3] and 0.439 mg/L (≈ 1.02 µM) in assay [4].

For `O=C(NC1CCCCC1)N1CCc2cc(S(=O)(=O)N3CC(c4ccccc4)NC3=O)ccc21` (centres unmarked) [Example 33, 4-phenyl-1-(N-cyclohexylcarbamoylindoline-5-sulfonyl)-4,5-dihydro-2-imidazolone], the IC50 in assay [1] is 0.003 mg/L (≈ 0.0064 µM); in assay [2] it was 0.172 mg/L (≈ 0.367 µM); in assay [3], 0.043 mg/L (≈ 0.0918 µM); in assay [4], 0.0037 mg/L (≈ 0.0079 µM).

As for `Nc1ccc(NC(=O)N2CCc3cc(S(=O)(=O)N4CC(c5ccccc5)NC4=O)ccc32)cc1` (centres unmarked) [Example 35, 4-phenyl-1-[N-(4-aminophenyl)carbamoylindoline-5-sulfonyl)-4,5-dihydro-2-imidazolone], the IC50 in assay [1] was 0.286 mg/L (≈ 0.599 µM); in assay [2], 3.24 mg/L (≈ 6.78 µM); in assay [3], 0.763 mg/L (≈ 1.6 µM); in assay [4] it was 0.004 mg/L (≈ 0.00838 µM).

For `COc1ccc(NC(=O)N2CCc3cc(S(=O)(=O)N4CC(c5ccccc5)NC4=O)ccc32)cc1` (centres unmarked) [Example 36, 4-phenyl-1-[N-(4-methoxyphenyl)carbamoylindoline-5-sulfonyl]-4,5-dihydro-2-imidazolone], the IC50 stood at 0.18 mg/L (≈ 0.365 µM) in assay [1], 0.391 mg/L (≈ 0.794 µM) in assay [2], 0.047 mg/L (≈ 0.0954 µM) in assay [3] and 6.92 mg/L (≈ 14 µM) in assay [4].

Turning to `CSc1ccc(NC(=O)N2CCc3cc(S(=O)(=O)N4CC(c5ccccc5)NC4=O)ccc32)cc1` (centres unmarked) [Example 37], the IC50 was 2.34 mg/L (≈ 4.6 µM) in assay [1], 0.71 mg/L (≈ 1.4 µM) in assay [2], 0.716 mg/L (≈ 1.41 µM) in assay [3] and greater than 20 mg/L in assay [4].

With `CNC(=S)N1CCc2cc(S(=O)(=O)N3CC(c4ccccc4)NC3=O)ccc21` (centres unmarked) [Example 38, 4-phenyl-1-(N-methylthiocarbamoylindoline-5-sulfonyl)-4,5-dihydro-2-imidazolone], the IC50 turned out to be 0.092 mg/L (≈ 0.221 µM) in assay [1], 0.65 mg/L (≈ 1.56 µM) in assay [2], 1.98 mg/L (≈ 4.75 µM) in assay [3] and 0.00452 mg/L (≈ 0.0109 µM) in assay [4].

Turning to `CCNC(=S)N1CCc2cc(S(=O)(=O)N3CC(c4ccccc4)NC3=O)ccc21` (centres unmarked) [Example 39, 4-phenyl-1-(N-ethylthiocarbamoylindoline-5-sulfonyl)-4,5-dihydro-2-imidazolone], the IC50 in assay [1] is 0.438 mg/L (≈ 1.02 µM); in assay [2], 9.11 mg/L (≈ 21.2 µM); in assay [3] it was 3.17 mg/L (≈ 7.36 µM); in assay [4], 0.567 mg/L (≈ 1.32 µM).

As to `CCCCNC(=S)N1CCc2cc(S(=O)(=O)N3CC(c4ccccc4)NC3=O)ccc21` (centres unmarked) [Example 41, 4-phenyl-1-(N-butylthiocarbamoylindoline-5-sulfonyl)-4 5-dihydro-2-imidazolone], the half-maximal inhibitory concentration (IC50) is 0.584 mg/L (≈ 1.27 µM) in assay [1], 2.4 mg/L (≈ 5.23 µM) in assay [2], 0.897 mg/L (≈ 1.96 µM) in assay [3] and 2.05 mg/L (≈ 4.48 µM) in assay [4].

`O=C1NC(c2ccccc2)CN1S(=O)(=O)c1ccc2c(c1)CCN2C(=S)Nc1ccccc1` (centres unmarked) [Example 42, 4-phenyl-1-(N-phenylthiocarbamoylindoline-5-sulfonyl)-4,5-dihydro-2-imidazolone]: the IC50 in assay [1] worked out at 0.095 mg/L (≈ 0.198 µM); in assay [2] it was 2.14 mg/L (≈ 4.46 µM); in assay [3], 10.5 mg/L (≈ 21.9 µM); in assay [4], 0.017 mg/L (≈ 0.0355 µM).

`COc1ccccc1NC(=O)N1CCc2cc(S(=O)(=O)N3CC(c4ccccc4)NC3=O)ccc21` (centres unmarked) [Example 44, 4-phenyl-1-[N-(2-methoxyphenyl)carbamoylindoline-5-sulfonyl]-4,5-dihydro-2-imidazolone]: the IC50 in assay [1] was 0.135 mg/L (≈ 0.274 µM); in assay [2], 1.47 mg/L (≈ 2.97 µM); in assay [3], 0.273 mg/L (≈ 0.554 µM); in assay [4], 0.29 mg/L (≈ 0.589 µM).

Turning to `Cc1ccc(NC(=O)N2CCc3cc(S(=O)(=O)N4CC(c5ccccc5)NC4=O)ccc32)cc1` (centres unmarked) [Example 45, 4-phenyl-1-[N-(4-methylphenyl)carbamoylindoline-5-sulfonyl]-4,5-dihydro-2-imidazolone], the IC50 in assay [1] turned out to be 0.311 mg/L (≈ 0.653 µM); in assay [2], 3.27 mg/L (≈ 6.85 µM); in assay [3], 0.813 mg/L (≈ 1.71 µM); in assay [4], 1.03 mg/L (≈ 2.17 µM).
